From ChEMBL document CHEMBL1149774, “Synthesis of N-(5,7-diamino-3-phenyl-quinoxalin-2-yl)-3,4,5-substituted anilines and N-[4[(5,7-diamino-3-phenylquinoxalin-2-yl)amino]benzoyl]-l-glutamic acid diethyl ester: evaluation of in vitro anti-cancer and anti-folate activities” (Eur J Med Chem, 2008)

Key:
Format in all cases: functional
NCI-H226 = assay: Growth inhibition of human NCI-H226 cells after 48 hrs by SRB staining method; details: NCI-H226, 48 h
U-251 = assay: Growth inhibition of human U251 cells after 48 hrs by SRB staining method; details: U-251, 48 h
RXF 393 = assay: Growth inhibition of human RXF393 cells after 48 hrs by SRB staining method; details: RXF 393, 48 h
HCT-15 = assay: Growth inhibition of human HCT15 cells after 48 hrs by SRB staining method; details: HCT-15, 48 h
NCI-H522 = assay: Growth inhibition of human NCI-H522 cells after 48 hrs by SRB staining method; details: NCI-H522, 48 h
786-0 = assay: Growth inhibition of human 786-0 cells after 48 hrs by SRB staining method; details: 786-0, 48 h
PC-3 = assay: Growth inhibition of human PC3 cells after 48 hrs by SRB staining method; details: PC-3, 48 h
DU-145 = assay: Growth inhibition of human DU145 cells after 48 hrs by SRB staining method; details: DU-145, 48 h
NCI-H23 = assay: Growth inhibition of human NCI-H23 cells after 48 hrs by SRB staining method; details: NCI-H23, 48 h
NCI/ADR-RES = assay: Growth inhibition of human NCI/ADR-RES cells after 48 hrs by SRB staining method
HOP-62 = assay: Growth inhibition of human HOP62 cells after 48 hrs by SRB staining method; details: HOP-62, 48 h
HCT-116 = assay: Growth inhibition of human HCT116 cells after 48 hrs by SRB staining method; details: HCT-116, 48 h
ACHN = assay: Growth inhibition of human ACHN cells after 48 hrs by SRB staining method
OVCAR-5 = assay: Growth inhibition of human OVCAR5 cells after 48 hrs by SRB staining method; details: OVCAR-5, 48 h
UO-31 = assay: Growth inhibition of human UO31 cells after 48 hrs by SRB staining method; details: UO-31, 48 h
SF-268 = assay: Growth inhibition of human SF268 cells after 48 hrs by SRB staining method; details: SF-268, 48 h
TK-10 = assay: Growth inhibition of human TK10 cells after 48 hrs by SRB staining method; details: TK-10, 48 h
[1] = read-out: pLC50 (the source's name) (converted)

COc1cc(Nc2nc3cc(N)cc(N)c3nc2-c2ccccc2)cc(OC)c1
LC50 (NCI-H226): > 100 µM
TGI (NCI-H226; read-out: pTGI (converted)): 33.1 µM
GI50 (U-251): 22.9 µM
LC50 (50% lethal concentration) (U-251): > 100 µM
TGI (U-251; read-out: pTGI (converted)): > 100 µM
GI50 (RXF 393): 3.16 µM
CC50 (RXF 393; [1]): 95.5 µM
TGI (RXF 393; read-out: pTGI (converted)): 18.6 µM
GI50 (HCT-15): 20 µM
LC50 (HCT-15): > 100 µM
TGI (HCT-15; read-out: pTGI (converted)): > 100 µM
GI50 (NCI-H522): 9.55 µM
LC50 (NCI-H522): 85.1 µM
TGI (NCI-H522; read-out: pTGI (converted)): 28.8 µM
GI50 (786-0): 17.8 µM
CC50 (786-0; [1]): > 100 µM
TGI (786-0; read-out: pTGI (converted)): 51.3 µM
GI50 (PC-3): 1.95 µM
CC50 (PC-3; [1]): 57.5 µM
TGI (PC-3; read-out: pTGI (converted)): 11 µM
GI50 (DU-145): 22.9 µM
CC50 (DU-145; [1]): > 100 µM
TGI (DU-145; read-out: pTGI (converted)): > 100 µM
GI50 (NCI-H23): 27.5 µM
LC50 (NCI-H23): > 100 µM
TGI (NCI-H23; read-out: pTGI (converted)): > 100 µM
GI50 (NCI/ADR-RES): 12.9 µM
CC50 (NCI/ADR-RES; [1]): > 100 µM
TGI (NCI/ADR-RES; read-out: pTGI (converted)): 74.1 µM
GI50 (HOP-62): 19.5 µM
LC50 (HOP-62): > 100 µM
TGI (HOP-62; read-out: pTGI (converted)): 53.7 µM
GI50 (HCT-116): 17 µM
LC50 (HCT-116): > 100 µM
TGI (HCT-116; read-out: pTGI (converted)): 53.7 µM
GI50 (ACHN): 5.62 µM
CC50 (ACHN; [1]): > 100 µM
TGI (ACHN; read-out: pTGI (converted)): 83.2 µM
GI50 (OVCAR-5): 26.3 µM
LC50 (OVCAR-5): > 100 µM
TGI (OVCAR-5; read-out: pTGI (converted)): > 100 µM
GI50 (UO-31): 8.91 µM
CC50 (UO-31; [1]): > 100 µM
TGI (UO-31; read-out: pTGI (converted)): 44.7 µM
GI50 (SF-268): 5.62 µM
CC50 (SF-268; [1]): > 100 µM
TGI (SF-268; read-out: pTGI (converted)): 56.2 µM
GI50 (TK-10): 13.2 µM
CC50 (TK-10; [1]): > 100 µM
TGI (TK-10; read-out: pTGI (converted)): 42.7 µM
